According to patent US8420697B2, “Treatment of acute exacerbation of asthma and reduction of likelihood of hospitalization of patients suffering therefrom” (MediciNova, Inc., priority 2009, dated 2013):
Where a name gives a salt, the structure may show the parent alone. Marks after values point to notes of the source that are not given here.

What was measured:
β1 (GP Rt atrium) = test: Ex vivo organ bioassay (Cerep 13271), GP right atrium
From the text: (§1) The Active Agent (MN-221 a/k/a bedoradrine or its pharmaceutically acceptable salts) administered intravenously allows it to distribute and partition into the congested lung tissue of AEA patients and allow bronchodilation without undue cardiovascular side effects. Table 1, below, provides an example of the adrenoceptor action profile for MN-221 determined experimentally: [table]

Human β1 [1] = biological target: T1, Human β1 (Homo sapiens, UniProt P08588); test: Cell bioassay, cAMP accumulation, human β1 in HEK; assay type: cell-based; details: read-out: cell bioassay (EC50 cAMP accum.) β1
T1 construct: host or cells: HEK
From the text: as §1

[2] = biological target: T2, β2 (GP carbachol-tx trachea) (Cavia porcellus, UniProt Q8K4Z4); test: Ex vivo organ bioassay (Cerep 13271), GP carbachol-treated trachea
T2 construct: tissue Cerep; host or cells: guinea pig trachea, carbachol-contracted
From the text: as §1

Hu β2 [3] = biological target: T3, Hu β2 (Homo sapiens, UniProt P07550); test: Cell bioassay, cAMP accumulation, human β2 in CHO; assay type: cell-based
T3 construct: host or cells: CHO
From the text: as §1

patients with severe AEA = test: Clinical study of MN-221 plus SOC in emergency department patients with AEA; assay type: in vivo, humans
Method: MN-221 was tested at escalating doses of 240 μg to 1,080 μg in patients with AEA treated in emergency departments (EDs). The study included 29 (13 treated with SOC only and 16 treated with MN-221 in combination with SOC) patients with severe AEA. All patients were administered SOC treatment as follows: supplemental oxygen given to maintain oxygen saturation measured by pulse oximetry of ≧90%; two doses of inhaled beta2-agonist (in this study, albuterol 5 mg) via nebulizer given approximately every 20 minutes; simultaneously with two doses of an inhaled anti-cholinergic agent (in this study, ipratropium 0.5 mg) via nebulizer given approximately every 20 minutes; one dose of corticosteroid given orally (in this study, prednisone 60 mg) or intravenously (in this study, methylprednisolone 125 mg), and intravenous magnesium sulfate (2 gm, diluted with 50-100 mL normal saline) and given over 10 minutes to patients with an FEV1≦25% of predicted upon ED presentation treatment.
MN-221 was administered at the following doses: 16 μg/min for 15 minutes (total of 240 μg); 30 μg/min for 15 minutes (total of 450 μg); 16 μg/min for 15 minutes; 8 μg/min for 105 minutes (total of 1,080 μg). A lyophilized unit dose for of MN-221, containing 2 mg MN-221 and lactose in a 10 mL vial was employed in the administration. Vials containing 2 mg (2000 μg) of MN-221 and vials containing placebo were reconstituted as follows. 4 mL of 5% dextrose in water was added to each 10 mL vial containing MN-221 to make 500 μg/mL stock solution (2000 μg/4 mL=500 μg/mL). 2 mL (1,000 μg) of stock solution was added to 123 mL 5% dextrose in water to make the total volume of 125 mL (123 mL+2 mL=125 mL). Final MN-221 solution equal to 1,000 μg/125 mL or 8 μg/mL was prepared this way.
Patients were administered SOC treatment (inhaled albuterol, 2.5 mg via nebulizer up to every 20 minutes) and ipratropium (0.5 mg via nebulizer up to every 20 minutes) in addition to treatment with MN-221 or placebo.

telemetered dogs = test: Cardiovascular safety in telemetered dogs, i.v. MN-221 with nebulized albuterol; assay type: in vivo; details: for heart rate, agent alone: albuterol inhaled 5 or 10 ug/kg, MN-221 i.v. over 15 min 0.3, 3 or 30 ug/kg; for MAP or QTc, agent alone: either agent at any dose
Method: In a separate study with telemetered dogs at the Lovelace Respiratory Research Institute, the effect of i.v. MN-221 administration in addition to nebulized albuterol was performed to assess cardiovascular changes and safety of the combination therapy. Albuterol was administered by inhalation at 5 or 10 ug/kg and MN-221 was intravenously administered over 15 min at 0.3, 3, or 30 ug/kg. […] See, FIG. 4.

ragweed sensitized dogs = test: Reversal of ragweed-induced bronchoconstriction in sensitized dogs; assay type: in vivo; details: i.v. 0.04 to 0.4 mg/kg; between 0.75 and 6.7 min after dosing; p<0.001 up to 4.5 min, p<0.01 up to 6.7 min
Human β1 [4] = biological target: T1, Human β1; test: Competitive binding (Cerep 14320), human β1; details: HEK (Human β1)
From the text: as §1

Hu β2 [5] = biological target: T3, Hu β2; test: Competitive binding (Cerep 14320), human β2
From the text: as §1

T3 sequence (P07550 whole entry): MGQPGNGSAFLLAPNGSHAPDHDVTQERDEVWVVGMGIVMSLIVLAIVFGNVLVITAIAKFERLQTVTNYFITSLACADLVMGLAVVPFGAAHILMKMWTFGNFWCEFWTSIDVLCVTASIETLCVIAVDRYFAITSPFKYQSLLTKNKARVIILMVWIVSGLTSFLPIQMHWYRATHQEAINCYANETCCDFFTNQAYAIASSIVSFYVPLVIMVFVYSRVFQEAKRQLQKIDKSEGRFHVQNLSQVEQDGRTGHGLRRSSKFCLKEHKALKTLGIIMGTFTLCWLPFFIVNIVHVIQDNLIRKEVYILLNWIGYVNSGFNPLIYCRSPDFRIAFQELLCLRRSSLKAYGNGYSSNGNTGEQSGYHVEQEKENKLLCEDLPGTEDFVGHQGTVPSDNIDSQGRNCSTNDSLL
T1 sequence (P08588 whole entry): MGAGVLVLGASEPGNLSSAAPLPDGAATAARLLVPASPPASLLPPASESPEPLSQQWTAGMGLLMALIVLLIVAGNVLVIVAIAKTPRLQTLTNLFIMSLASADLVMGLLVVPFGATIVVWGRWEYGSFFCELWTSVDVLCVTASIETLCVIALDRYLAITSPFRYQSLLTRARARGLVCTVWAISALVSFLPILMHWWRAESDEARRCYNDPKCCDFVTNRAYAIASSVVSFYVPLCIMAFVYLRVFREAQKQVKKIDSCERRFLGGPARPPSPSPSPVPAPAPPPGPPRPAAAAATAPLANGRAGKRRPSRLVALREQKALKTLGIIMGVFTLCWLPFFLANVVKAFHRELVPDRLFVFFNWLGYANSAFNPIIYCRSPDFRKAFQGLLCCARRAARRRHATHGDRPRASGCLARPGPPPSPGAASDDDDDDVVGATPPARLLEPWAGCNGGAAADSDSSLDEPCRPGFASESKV
T2 sequence (Q8K4Z4 whole entry): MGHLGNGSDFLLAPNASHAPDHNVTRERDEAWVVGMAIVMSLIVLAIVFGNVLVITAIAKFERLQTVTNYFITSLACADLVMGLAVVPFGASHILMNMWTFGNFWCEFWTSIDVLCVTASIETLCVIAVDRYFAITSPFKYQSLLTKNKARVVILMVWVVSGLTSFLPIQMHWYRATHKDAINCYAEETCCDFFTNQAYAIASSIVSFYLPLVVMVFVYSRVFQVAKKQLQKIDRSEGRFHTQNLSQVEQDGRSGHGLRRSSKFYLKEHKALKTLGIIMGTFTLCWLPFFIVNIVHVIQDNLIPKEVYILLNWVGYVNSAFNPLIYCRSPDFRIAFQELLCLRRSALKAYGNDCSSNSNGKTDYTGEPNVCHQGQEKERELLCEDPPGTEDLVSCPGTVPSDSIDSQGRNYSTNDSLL

Row | EC50 (Human β1 [1]) [nM] | EC50 ([2]; GP carbachol-tx trachea (% salbut)) [nM] | ex vivo Organ bioassay β1/β2 ([2]; ratio of EC39 (atrium) to EC50 (trachea)) | EC50 (Hu β2 [3]; CHO (Hu β2), read-out: cell bioassay (EC50 cAMP accum.) β2) [nM] | cell bioassay cAMP accum. β1/β2 (Hu β2 [3]; ratio of EC50 β1 to β2) | IC50 (Human β1 [4]) [nM] | IC50 (Hu β2 [5]; CHO (Hu β2)) [nM] | Competitive Binding β1/β2 (Hu β2 [5]; ratio of IC50 β1 to β2) | Structure (SMILES) | agonist character (β1 (GP Rt atrium); GP Rt atrium) | ex vivo Organ bioassay est EC39 β1 (β1 (GP Rt atrium); GP Rt atrium (% isoprot), EC39 = 39% of isoproterenol maximum response) | Emax (β1 (GP Rt atrium); GP Rt atrium, % of isoproterenol maximum response) | safety (ECG, laboratory, adverse experience data) (patients with severe AEA; MN-221 added to standardized care) | heart rate change in patients (patients with severe AEA; MN-221 combined with SOC, FIG. 2) | Improvement in FEV1 values versus SOC (patients with severe AEA; MN-221 in addition to SOC treatment) | hospitalization rate (patients with severe AEA; MN-221 with SOC, 4 of 16 patients, SOC only 54% (7 of 13)) [%] | MAP, QTc with combination therapy (telemetered dogs; MN-221 plus albuterol) | heart rate, agent alone (telemetered dogs) | heart rate, MN-221 added on top of albuterol (telemetered dogs; clinically-relevant doses of both) | MAP or QTc, agent alone (telemetered dogs) | reversal of ragweed-induced bronchoconstriction (ragweed sensitized dogs)
1 | > 50000 | 28 | 36 | 13 | >3000 | 11800 | 270 | 42 | CN(C)C(=O)COc1ccc2c(c1)C[C@@H](NC[C@H](O)c1ccc(O)c(CCO)c1)CC2 [MN-221, acetamide, N,N-dimethyl-2-[[(7S)-5,6,7,8-tetrahydro-7-[[(2R)-2-hydroxy-2-[4-hydroxy-3-(2-hydroxyethyl)phenyl]ethyl]amino]-2-naphthalenyl]oxy], sulfate] | a partial agonist. | ~1* μM | Emax = 39% | No safety concerns | absence of significant heart rate increase | generally appeared to be greater | 25 | not adversely changed | increased heart rate to a modest level | no additional increase in heart rate | No adverse changes | statistically significant, and near maximal reversal of bronchoconstriction
2 |  |  |  |  |  |  |  |  | CC(C)(C)NCC(O)c1ccc(O)c(CO)c1 (stereo not shown) [albuterol, reference compound] |  |  |  |  |  |  |  |  | increased heart rate to a modest level |  | No adverse changes | 
